# Measured values from PMC6035882 (Biochimie, 2018).
# Read-outs that look alike come from different tables or passages of the source.
# Experiments:
# Experiment in all cases: 3H-2-deoxyglucose uptake inhibition in L929 cells
# Type in all cases: cell-based
# GLUT1 [1] = biological target: T1, GLUT1 (Mus musculus, UniProt P17809)
# T1 sequence (P17809 1-492): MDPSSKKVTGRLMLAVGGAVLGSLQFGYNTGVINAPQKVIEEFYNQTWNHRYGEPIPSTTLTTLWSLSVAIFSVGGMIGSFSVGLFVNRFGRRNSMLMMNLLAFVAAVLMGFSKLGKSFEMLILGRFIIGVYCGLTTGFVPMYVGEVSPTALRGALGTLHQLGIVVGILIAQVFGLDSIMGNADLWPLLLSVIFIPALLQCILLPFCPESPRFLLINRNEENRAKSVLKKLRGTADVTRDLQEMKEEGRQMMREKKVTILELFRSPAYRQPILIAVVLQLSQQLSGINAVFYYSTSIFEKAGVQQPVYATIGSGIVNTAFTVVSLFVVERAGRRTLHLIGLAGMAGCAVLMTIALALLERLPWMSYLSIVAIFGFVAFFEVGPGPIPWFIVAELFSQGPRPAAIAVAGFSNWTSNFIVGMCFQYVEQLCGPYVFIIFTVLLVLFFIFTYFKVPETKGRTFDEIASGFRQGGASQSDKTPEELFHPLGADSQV
# GLUT1 [2] = biological target: T1, GLUT1; remark: listed apart in the source
# GLUT1 [3] = biological target: T1, GLUT1; remark: listed apart in the source
structure (smiles),measurement,setting,value
Cc1c(NC(=O)c2cc(C(N)=O)nc3cc(F)ccc23)c(C(F)(F)F)nn1Cc1ccc(C#N)cc1 [BAY-876],IC50,GLUT1 [1],0.02 µM
O=C(Oc1cccc(F)c1OC(=O)c1cccc(O)c1)c1cccc(O)c1 [WZB-117],IC50,GLUT1 [2],8.5 µM
"O=c1c(O)c(-c2ccc(O)c(O)c2)oc2cc(O)cc(O)c12 [quercetin, 3,3′,4′5,7-pentahydroxyflavone]",IC50,GLUT1 [3],8.5 µM
